Assay results published in ChEMBL document CHEMBL5725325, “Combination of kinase inhibitors and uses thereof” (2017).

Columns and labels:
[1] = target: Phosphatidylinositol 4,5-bisphosphate 3-kinase catalytic subunit gamma isoform (Homo sapiens, UniProt P48736); assay: (§1) PI 3-Kinase HTRF Assay: Briefly, the assay is a time resolved FRET assay that indirectly measures PIP3 product formed by the activity of a PI3-K. The kinase reaction is performed in a microtitre plate (e.g., a 384 well microtitre plate). The total reaction volume is approximately 20 ul per well. In the first step, each well receives 2 ul of test compound in 20% dimethylsulphoxide resulting in a 2% DMSO final concentration. Next, approximately 14.5 ul of a kinase/PIP2 mixture (diluted in 1x reaction buffer) is added per well for a final concentration of 0.25-0.3 ug/ml kinase and 10 uM PIP2. The plate is sealed and incubated for 15 minutes at room temperature. To start the reaction, 3.5 ul of ATP (diluted in 1x reaction buffer) is added per well for a final concentration of 10 uM ATP. The plate is sealed and incubated for 1 hour at room temperature. The reaction is stopped by adding 5 ul of Stop Solution per well and then 5 ul of Detection Mix is added per well. The plate is sealed, incubated for 1 hour at room temperature, and then read on an appropriate plate reader.
[2] = as §1
[3] = target: Phosphatidylinositol 3-kinase regulatory subunit beta (Homo sapiens, UniProt O00459); assay: as §1
[4] = target: T1, Phosphatidylinositol 4,5-bisphosphate 3-kinase catalytic subunit delta isoform (Homo sapiens, UniProt O00329); assay: as §1
T1 sequence (O00329 whole entry): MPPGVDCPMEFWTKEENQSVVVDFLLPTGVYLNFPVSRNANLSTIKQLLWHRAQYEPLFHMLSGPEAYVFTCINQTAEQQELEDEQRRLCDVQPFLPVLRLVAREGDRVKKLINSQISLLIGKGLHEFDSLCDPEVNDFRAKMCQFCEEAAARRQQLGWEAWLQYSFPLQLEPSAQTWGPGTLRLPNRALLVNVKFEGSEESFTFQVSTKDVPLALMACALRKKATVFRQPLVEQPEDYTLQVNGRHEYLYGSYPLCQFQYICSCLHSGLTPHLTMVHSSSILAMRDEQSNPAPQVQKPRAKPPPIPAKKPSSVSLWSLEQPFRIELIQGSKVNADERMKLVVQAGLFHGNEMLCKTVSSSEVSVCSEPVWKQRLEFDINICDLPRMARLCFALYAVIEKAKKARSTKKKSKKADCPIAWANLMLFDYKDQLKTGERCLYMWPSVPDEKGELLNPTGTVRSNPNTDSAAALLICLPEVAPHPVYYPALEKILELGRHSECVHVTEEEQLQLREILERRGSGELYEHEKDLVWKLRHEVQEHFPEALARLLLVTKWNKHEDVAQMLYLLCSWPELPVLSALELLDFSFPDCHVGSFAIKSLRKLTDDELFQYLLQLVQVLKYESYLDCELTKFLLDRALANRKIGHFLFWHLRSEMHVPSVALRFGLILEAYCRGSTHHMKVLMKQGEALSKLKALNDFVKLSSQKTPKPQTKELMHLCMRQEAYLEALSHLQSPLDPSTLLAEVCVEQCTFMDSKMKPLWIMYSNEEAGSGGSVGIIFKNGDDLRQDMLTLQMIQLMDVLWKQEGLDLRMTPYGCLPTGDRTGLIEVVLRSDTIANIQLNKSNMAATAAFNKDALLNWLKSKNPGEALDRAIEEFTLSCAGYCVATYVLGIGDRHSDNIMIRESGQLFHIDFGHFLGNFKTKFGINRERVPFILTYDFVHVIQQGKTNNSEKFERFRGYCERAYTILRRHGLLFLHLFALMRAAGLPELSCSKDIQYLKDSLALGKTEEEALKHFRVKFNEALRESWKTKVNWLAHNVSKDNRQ

Phosphatidylinositol 3-kinase regulatory subunit beta, sequence (O00459 whole entry, canonical isoform): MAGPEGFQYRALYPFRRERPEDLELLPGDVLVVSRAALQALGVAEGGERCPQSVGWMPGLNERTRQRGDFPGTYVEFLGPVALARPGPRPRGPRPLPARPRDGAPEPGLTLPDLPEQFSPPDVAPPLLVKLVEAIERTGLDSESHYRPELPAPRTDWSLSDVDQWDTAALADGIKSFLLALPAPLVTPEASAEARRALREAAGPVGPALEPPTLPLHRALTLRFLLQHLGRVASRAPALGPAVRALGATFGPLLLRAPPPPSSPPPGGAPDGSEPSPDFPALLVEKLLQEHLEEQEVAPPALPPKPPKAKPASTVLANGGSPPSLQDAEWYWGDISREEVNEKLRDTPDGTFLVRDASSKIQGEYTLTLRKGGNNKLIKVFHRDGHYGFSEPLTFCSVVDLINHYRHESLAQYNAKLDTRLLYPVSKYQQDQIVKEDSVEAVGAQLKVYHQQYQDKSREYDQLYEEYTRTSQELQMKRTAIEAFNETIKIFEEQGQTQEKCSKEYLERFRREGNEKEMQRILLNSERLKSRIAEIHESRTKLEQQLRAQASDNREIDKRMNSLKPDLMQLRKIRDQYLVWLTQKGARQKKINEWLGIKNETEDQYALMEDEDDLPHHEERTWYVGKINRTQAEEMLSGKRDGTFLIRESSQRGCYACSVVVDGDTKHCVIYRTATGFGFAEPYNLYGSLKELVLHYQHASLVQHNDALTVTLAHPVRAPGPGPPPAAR
Phosphatidylinositol 4,5-bisphosphate 3-kinase catalytic subunit gamma isoform, sequence (P48736 whole entry, canonical isoform): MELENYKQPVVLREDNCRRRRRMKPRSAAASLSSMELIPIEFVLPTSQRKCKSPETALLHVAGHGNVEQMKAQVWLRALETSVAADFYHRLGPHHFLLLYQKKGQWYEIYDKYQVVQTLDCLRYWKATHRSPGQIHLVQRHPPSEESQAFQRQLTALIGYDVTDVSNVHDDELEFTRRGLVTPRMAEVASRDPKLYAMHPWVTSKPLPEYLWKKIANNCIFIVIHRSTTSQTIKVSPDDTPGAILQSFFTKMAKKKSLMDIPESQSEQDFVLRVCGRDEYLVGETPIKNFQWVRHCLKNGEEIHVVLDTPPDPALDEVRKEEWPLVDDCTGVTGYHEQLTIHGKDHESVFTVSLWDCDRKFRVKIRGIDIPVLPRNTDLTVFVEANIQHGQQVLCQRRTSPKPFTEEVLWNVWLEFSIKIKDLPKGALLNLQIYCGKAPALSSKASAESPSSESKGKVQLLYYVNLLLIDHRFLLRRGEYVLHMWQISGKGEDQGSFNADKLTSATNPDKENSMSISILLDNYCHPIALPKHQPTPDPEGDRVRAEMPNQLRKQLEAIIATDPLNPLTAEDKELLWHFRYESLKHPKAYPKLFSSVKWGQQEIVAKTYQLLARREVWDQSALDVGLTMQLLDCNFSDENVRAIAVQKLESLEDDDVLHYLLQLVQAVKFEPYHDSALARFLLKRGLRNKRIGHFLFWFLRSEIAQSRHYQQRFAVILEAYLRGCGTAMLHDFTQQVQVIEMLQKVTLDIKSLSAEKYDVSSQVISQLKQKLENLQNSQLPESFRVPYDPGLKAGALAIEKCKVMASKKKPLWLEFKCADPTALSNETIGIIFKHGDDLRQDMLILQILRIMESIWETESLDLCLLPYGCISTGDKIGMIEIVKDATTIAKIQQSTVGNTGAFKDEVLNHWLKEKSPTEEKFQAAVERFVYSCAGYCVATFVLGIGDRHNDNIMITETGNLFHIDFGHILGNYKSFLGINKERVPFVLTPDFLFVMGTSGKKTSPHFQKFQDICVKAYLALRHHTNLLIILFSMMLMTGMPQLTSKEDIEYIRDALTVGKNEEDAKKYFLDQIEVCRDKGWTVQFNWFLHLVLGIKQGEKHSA

IC50 [2] [nM]	IC50 [3] [nM]	SMILES	IC50 [1] [nM]	other results
		Nc1nc2cc(-c3ccc4ncn(-c5ccccc5)c4c3)ccc2o1	< 1000	
< 100		C[C@@H]1COCCN1C1CN(c2cnc3ccc(-c4ccc5oc(N)nc5c4)nc3n2)C1		
	< 10000	CC(C)(N)C(=O)N1CCN(c2cnc3ccc(-c4ccc5oc(N)nc5c4)nc3n2)CC1		
		Nc1nc2cc(-c3ccc4ncc(C(=O)N5CCC(N6CCC(F)(F)C6)C5)n4c3)ccc2o1 (stereo not drawn)	< 10000	IC50 [4]: < 10000 nM
< 100	< 100	Nc1nc2cc(-c3ccc4ncc(N5CCN(C(=O)C6CCCN6)CC5)nc4c3)ccc2o1 (stereo not drawn)		
	< 100	C[C@@H](N)C(=O)N1CCN(c2cnc3ccc(-c4ccc5oc(N)nc5c4)nc3n2)CC1		
